Results from patent US20210254272A1, “TEXTILES HAVING ANTIMICROBIAL PROPERTIES” (Livinguard AG, priority 2015, published 2021).

Assay: Leaching test: 100 g fabric soaked in 10 liters stagnant distilled water, 3 days (72 hours)
Type: physicochemical
Conditions: for Leaching of active ingredients: exhaust 80° C. 60 min, cured 180° C. 2 min, post wash
Method: (§1) The test procedure for leaching was as follows: 100 g (grams) of fabric as well as control fabrics were soaked in 10 liters of stagnant distilled water in a closed wide mouth jar. After 3 days (72 hours), the water samples were tested for leached substances as per standard analytical methods.
as §1, with “methods. A weight of 100 g fabric was chosen because in the preferred embodiment of the water filter as described further below, each filter comprises a strip of fabric with 210 g/m^2, 3 meters long and 0.16 meters wide, which corresponds to 100 g of fabric.” for “methods.”

Silver
Leaching of active ingredients (in ppm) (0.2% each in mixture (o.w.f), exhaust 80° C., 60 min, curing 180° C., 2 min, unwashed): 7 ppm
Leaching of active ingredients (in ppm) (0.5% each in mixture (o.w.f), exhaust 80° C., 60 min, curing 180° C., 2 min, unwashed): 11 ppm
Leaching of active ingredients (in ppm) (1.0% each in mixture (o.w.f), exhaust 80° C., 60 min, curing 180° C., 2 min, unwashed): 18 ppm
Leeching in ppm (Exhaust + Wash + pad + Wash, exhaust 0.1% o.w.f. each in mixture, 1 gm/liter pad): 0.3 ppm
Leeching in ppm (Exhaust + Wash + pad + Wash, exhaust 0.1% o.w.f. each in mixture, 5 gm/liter pad): 0.5 ppm
Leeching in ppm (Exhaust + Wash + pad + Wash, exhaust 0.1% o.w.f. each in mixture, 10 gm/liter pad): 0.6 ppm
Leeching in ppm (Exhaust + Wash + pad + Wash, exhaust 0.25% o.w.f. each in mixture, 1 gm/liter pad): 3 ppm
Leeching in ppm (Exhaust + Wash + pad + Wash, exhaust 0.25% o.w.f. each in mixture, 5 gm/liter pad): 7 ppm
Leeching in ppm (Exhaust + Wash + pad + Wash, exhaust 0.25% o.w.f. each in mixture, 10 gm/liter pad): 16 ppm
Leeching in ppm (Exhaust + Wash + pad + Wash, exhaust 0.5 (% o.w.f) each in mixture, 1 gm/liter pad): 8 ppm
Leeching in ppm (Exhaust + Wash + pad + Wash, exhaust 0.5 (% o.w.f) each in mixture, 5 gm/liter pad): 14 ppm
Leeching in ppm (Exhaust + Wash + pad + Wash, exhaust 0.5 (% o.w.f) each in mixture, 10 gm/liter pad): 22 ppm
Leeching in ppm (Exhaust + Wash + pad + Wash, exhaust 1.0% o.w.f. each in mixture, 1 gm/liter pad): 14 ppm
Leeching in ppm (Exhaust + Wash + pad + Wash, exhaust 1.0% o.w.f. each in mixture, 5 gm/liter pad): 23 ppm
Leeching in ppm (Exhaust + Wash + pad + Wash, exhaust 1.0% o.w.f. each in mixture, 10 gm/liter pad): 28 ppm
Leeching in ppm (Exhaust + pad + Wash, exhaust 0.1% o.w.f. each in mixture, 1 gm/liter pad): 145 ppm
Leeching in ppm (Exhaust + pad + Wash, exhaust 0.1% o.w.f. each in mixture, 5 gm/liter pad): 235 ppm
Leeching in ppm (Exhaust + pad + Wash, exhaust 0.1% o.w.f. each in mixture, 10 gm/liter pad): 254 ppm
Leeching in ppm (Exhaust + pad + Wash, exhaust 0.25% o.w.f. each in mixture, 1 gm/liter pad): 223 ppm
Leeching in ppm (Exhaust + pad + Wash, exhaust 0.25% o.w.f. each in mixture, 5 gm/liter pad): 257 ppm
Leeching in ppm (Exhaust + pad + Wash, exhaust 0.25% o.w.f. each in mixture, 10 gm/liter pad): 534 ppm
Leeching in ppm (Exhaust + pad + Wash, exhaust 0.5 (% o.w.f) each in mixture, 1 gm/liter pad): 456 ppm
Leeching in ppm (Exhaust + pad + Wash, exhaust 0.5 (% o.w.f) each in mixture, 5 gm/liter pad): 573 ppm
Leeching in ppm (Exhaust + pad + Wash, exhaust 0.5 (% o.w.f) each in mixture, 10 gm/liter pad): 645 ppm
Leeching in ppm (Exhaust + pad + Wash, exhaust 1.0% o.w.f. each in mixture, 1 gm/liter pad): 534 ppm
Leeching in ppm (Exhaust + pad + Wash, exhaust 1.0% o.w.f. each in mixture, 5 gm/liter pad): 654 ppm
Leeching in ppm (Exhaust + pad + Wash, exhaust 1.0% o.w.f. each in mixture, 10 gm/liter pad): 849 ppm
Leeching in ppm (Exhaust + pad, exhaust 0.1% o.w.f. each in mixture, 1 gm/liter pad): 208 ppm
Leeching in ppm (Exhaust + pad, exhaust 0.1% o.w.f. each in mixture, 5 gm/liter pad): 298 ppm
Leeching in ppm (Exhaust + pad, exhaust 0.1% o.w.f. each in mixture, 10 gm/liter pad): 362 ppm
Leeching in ppm (Exhaust + pad, exhaust 0.25% o.w.f. each in mixture, 1 gm/liter pad): 320 ppm
Leeching in ppm (Exhaust + pad, exhaust 0.25% o.w.f. each in mixture, 5 gm/liter pad): 321 ppm
Leeching in ppm (Exhaust + pad, exhaust 0.25% o.w.f. each in mixture, 10 gm/liter pad): 387 ppm
Leeching in ppm (Exhaust + pad, exhaust 0.5 (% o.w.f) each in mixture, 1 gm/liter pad): 398 ppm
Leeching in ppm (Exhaust + pad, exhaust 0.5 (% o.w.f) each in mixture, 5 gm/liter pad): 453 ppm
Leeching in ppm (Exhaust + pad, exhaust 0.5 (% o.w.f) each in mixture, 10 gm/liter pad): 801 ppm
Leeching in ppm (Exhaust + pad, exhaust 1.0% o.w.f. each in mixture, 1 gm/liter pad): 595 ppm
Leeching in ppm (Exhaust + pad, exhaust 1.0% o.w.f. each in mixture, 5 gm/liter pad): 749 ppm
Leeching in ppm (Exhaust + pad, exhaust 1.0% o.w.f. each in mixture, 10 gm/liter pad): 1234 ppm
Leeching in ppm (Exhaust +Wash + pad, exhaust 0.1% o.w.f. each in mixture, 1 gm/liter pad): 86 ppm
Leeching in ppm (Exhaust +Wash + pad, exhaust 0.1% o.w.f. each in mixture, 5 gm/liter pad): 164 ppm
Leeching in ppm (Exhaust +Wash + pad, exhaust 0.1% o.w.f. each in mixture, 10 gm/liter pad): 254 ppm
Leeching in ppm (Exhaust +Wash + pad, exhaust 0.25% o.w.f. each in mixture, 1 gm/liter pad): 196 ppm
Leeching in ppm (Exhaust +Wash + pad, exhaust 0.25% o.w.f. each in mixture, 5 gm/liter pad): 212 ppm
Leeching in ppm (Exhaust +Wash + pad, exhaust 0.25% o.w.f. each in mixture, 10 gm/liter pad): 324 ppm
Leeching in ppm (Exhaust +Wash + pad, exhaust 0.5 (% o.w.f) each in mixture, 1 gm/liter pad): 375 ppm
Leeching in ppm (Exhaust +Wash + pad, exhaust 0.5 (% o.w.f) each in mixture, 5 gm/liter pad): 435 ppm
Leeching in ppm (Exhaust +Wash + pad, exhaust 0.5 (% o.w.f) each in mixture, 10 gm/liter pad): 578 ppm
Leeching in ppm (Exhaust +Wash + pad, exhaust 1.0% o.w.f. each in mixture, 1 gm/liter pad): 475 ppm
Leeching in ppm (Exhaust +Wash + pad, exhaust 1.0% o.w.f. each in mixture, 5 gm/liter pad): 546 ppm
Leeching in ppm (Exhaust +Wash + pad, exhaust 1.0% o.w.f. each in mixture, 10 gm/liter pad): 656 ppm
Leaching of active ingredients (in ppm) (exhaust 60° C., solution dosage 1% o.w.f, process time 60 min): 21 ppm
Leaching of active ingredients (in ppm) (exhaust 60° C., solution dosage 1% o.w.f, process time 90 min): 13 ppm
Leaching of active ingredients (in ppm) (exhaust 60° C., solution dosage 1% o.w.f, process time 120 min): 13 ppm
Leaching of active ingredients (in ppm) (exhaust 60° C., solution dosage 1% o.w.f, process time 180 min): 12 ppm
Leaching of active ingredients (in ppm) (exhaust 60° C., solution dosage 1% o.w.f, process time 240 min): 15 ppm
Leaching of active ingredients (mixture 0.2% o.w.f. each): 0.3 ppm
Leaching of active ingredients (mixture 0.5% o.w.f. each): 0.5 ppm
Leaching of active ingredients (mixture 1% o.w.f. each): 0.9 ppm
Leaching of active ingredients (in ppm) (exhaust 80° C., 1% o.w.f, 60 min, curing 170° C., curing dwell time 0.5 min): 28 ppm
Leaching of active ingredients (in ppm) (exhaust 80° C., 1% o.w.f, 60 min, curing 170° C., curing dwell time 1.0 min): 24 ppm
Leaching of active ingredients (in ppm) (exhaust 80° C., 1% o.w.f, 60 min, curing 170° C., curing dwell time 1.5 min): 21 ppm
Leaching of active ingredients (in ppm) (exhaust 80° C., 1% o.w.f, 60 min, curing 170° C., curing dwell time 2.0 min): 13 ppm
Leaching of active ingredients (in ppm) (exhaust 80° C., 1% o.w.f, 60 min, curing 170° C., curing dwell time 2.5 min): 19 ppm
Leaching of active ingredients (in ppm) (exhaust 80° C., 1% o.w.f, 60 min, curing 170° C., curing dwell time 3.0 min): 19 ppm
Leaching of active ingredients (in ppm) (exhaust 80° C., 1% o.w.f, 60 min, curing 180° C., curing dwell time 0.5 min): 21 ppm
Leaching of active ingredients (in ppm) (exhaust 80° C., 1% o.w.f, 60 min, curing 180° C., curing dwell time 1.0 min): 13 ppm
Leaching of active ingredients (in ppm) (exhaust 80° C., 1% o.w.f, 60 min, curing 180° C., curing dwell time 1.5 min): 13 ppm
Leaching of active ingredients (in ppm) (exhaust 80° C., 1% o.w.f, 60 min, curing 180° C., curing dwell time 2.0 min): 4 ppm
Leaching of active ingredients (in ppm) (exhaust 80° C., 1% o.w.f, 60 min, curing 180° C., curing dwell time 2.5 min): 12 ppm
Leaching of active ingredients (in ppm) (exhaust 80° C., 1% o.w.f, 60 min, curing 180° C., curing dwell time 3.0 min): 12 ppm
Leaching of active ingredients (in ppm) (exhaust 80° C., 1% o.w.f, 60 min, curing dwell time at 190° C. (title): 0.5 min): 18 ppm
Leaching of active ingredients (in ppm) (exhaust 80° C., 1% o.w.f, 60 min, curing dwell time at 190° C. (title): 1.0 min): 12 ppm
Leaching of active ingredients (in ppm) (exhaust 80° C., 1% o.w.f, 60 min, curing dwell time at 190° C. (title): 1.5 min): 10 ppm
Leaching of active ingredients (in ppm) (exhaust 80° C., 1% o.w.f, 60 min, curing dwell time at 190° C. (title): 2.0 min): 10 ppm
Leaching of active ingredients (in ppm) (exhaust 80° C., 1% o.w.f, 60 min, curing dwell time at 190° C. (title): 2.5 min): 24 ppm
Leaching of active ingredients (in ppm) (exhaust 80° C., 1% o.w.f, 60 min, curing dwell time at 190° C. (title): 3.0 min): 35 ppm
